In this experiment the test system is L1210 leukemia ip in BDF1 mice, survival T/C. The experiment in a line: NCI In Vivo Anticancer Drug Screen. Data for tumor model L1210 Leukemia (intraperitoneal) in B6D2F1 (BDF1) mice. To be noted: endpoint: mean survival time, higher = longer survival. The method in brief:
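Tumor was transplanted into mice, which were then dosed with test compound or vehicle alone. Survival was recorded for each group, and the treated figure was expressed relative to the control figure.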

Where [1] appears, read: dose: 50.0 mg/kg/injection, schedule: Q01DX009 (ip), vehicle: Klucel (hydroxypropylcellulose) (HPC).
[2] abbreviates: dose: 100.0 mg/kg/injection, schedule: Q04DX003 (ip), vehicle: Klucel (hydroxypropylcellulose) (HPC).
Where [3] appears, read: dose: 200.0 mg/kg/injection, schedule: Q04DX003 (ip), vehicle: Klucel (hydroxypropylcellulose) (HPC).
The mark [4] stands for this setting: dose: 400.0 mg/kg/injection, schedule: Q04DX003 (ip), vehicle: Klucel (hydroxypropylcellulose) (HPC).
The mark [5] stands for this setting: dose: 100.0 mg/kg/injection, schedule: Q01DX001 (ip), vehicle: carboxymethylcellulose (CMC).
Where [6] appears, read: dose: 100.0 mg/kg/injection, schedule: Q04DX002 (ip), vehicle: Klucel (hydroxypropylcellulose) (HPC).
Where [7] appears, read: dose: 200.0 mg/kg/injection, schedule: Q04DX002 (ip), vehicle: Klucel (hydroxypropylcellulose) (HPC).
Where [8] appears, read: dose: 400.0 mg/kg/injection, schedule: Q04DX002 (ip), vehicle: Klucel (hydroxypropylcellulose) (HPC).
Setting [9] is: dose: 100.0 mg/kg/injection, schedule: Q01DX001 (ip), vehicle: Klucel (hydroxypropylcellulose) (HPC).
Setting [10] is: dose: 200.0 mg/kg/injection, schedule: Q01DX001 (ip), vehicle: Klucel (hydroxypropylcellulose) (HPC).
[11] abbreviates: dose: 75.0 mg/kg/injection, schedule: Q01DX001 (ip), vehicle: saline.
Where [12] appears, read: dose: 150.0 mg/kg/injection, schedule: Q01DX001 (ip), vehicle: saline.
Where [13] appears, read: dose: 100.0 mg/kg/injection, schedule: Q01DX001 (ip), vehicle: saline.
Where [14] appears, read: dose: 200.0 mg/kg/injection, schedule: Q01DX001 (ip), vehicle: saline.
Setting [15] is: dose: 400.0 mg/kg/injection, schedule: Q01DX001 (ip), vehicle: saline.
Setting [16] is: dose: 300.0 mg/kg/injection, schedule: Q01DX001 (ip), vehicle: saline.
Where [17] appears, read: dose: 100.0 mg/kg/injection, schedule: Q04DX003 (ip), vehicle: saline.
Setting [18] is: dose: 200.0 mg/kg/injection, schedule: Q04DX003 (ip), vehicle: saline.

Toxic doses and inconclusive results are not listed.

As to `COc1cc2c(cc1OC)C(C=C(c1ccccc1)c1ccccc1)N(C)CC2` (stereo not drawn), the T/C runs as follows: (dose: 12.5 mg/kg/injection, schedule: Q01DX009 (ip), vehicle: Klucel (hydroxypropylcellulose) (HPC)) 94 % of control; (dose: 12.5 mg/kg/injection, schedule: Q04DX003 (ip), vehicle: Klucel (hydroxypropylcellulose) (HPC)) 95 % of control; (dose: 25.0 mg/kg/injection, schedule: Q01DX009 (ip), vehicle: Klucel (hydroxypropylcellulose) (HPC)) 103 % of control; (dose: 25.0 mg/kg/injection, schedule: Q04DX003 (ip), vehicle: Klucel (hydroxypropylcellulose) (HPC)) 101 % of control; under setting [1], 96 % of control; (dose: 50.0 mg/kg/injection, schedule: Q04DX003 (ip), vehicle: Klucel (hydroxypropylcellulose) (HPC)) 96 % of control.
For `O=C(Nc1ccc(Cl)cc1)Nc1ccc(Cl)cc1`, the T/C (dose: 100.0 mg/kg/injection, schedule: Q04DX003 (ip), vehicle: saline with Tween-80) was 91 % of control and the T/C (dose: 200.0 mg/kg/injection, schedule: Q04DX003 (ip), vehicle: saline with Tween-80) is 91 % of control.
Take `CCCCCCCCCCCCCCCC(=O)N(CCCN)CCCN`: the T/C is, setting by setting: (dose: 12.5 mg/kg/injection, schedule: Q01DX009 (ip), vehicle: saline with Tween-80) 109 % of control; (dose: 12.5 mg/kg/injection, schedule: Q04DX003 (ip), vehicle: saline) 98 % of control; (dose: 25.0 mg/kg/injection, schedule: Q04DX003 (ip), vehicle: saline) 103 % of control; (dose: 50.0 mg/kg/injection, schedule: Q04DX003 (ip), vehicle: saline) 101 % of control.
`CCCCCOP(=O)(Cc1ccc(Cl)cc1)OCCCCC`: the T/C is, setting by setting: under setting [2], 87 % of control; under setting [3], 90 % of control; under setting [4], 100 % of control.
Turning to `O=C1CCC(=O)N1c1ccc(I)cc1`, the T/C was 96 % of control (dose: 50.0 mg/kg/injection, schedule: Q01DX001 (ip), vehicle: carboxymethylcellulose (CMC)); 98 % of control under setting [5]; 93 % of control (dose: 200.0 mg/kg/injection, schedule: Q01DX001 (ip), vehicle: carboxymethylcellulose (CMC)); 107 % of control (dose: 400.0 mg/kg/injection, schedule: Q01DX001 (ip), vehicle: carboxymethylcellulose (CMC)).
In the case of `O=P(c1cccc(C(F)(F)F)c1)(c1cccc(C(F)(F)F)c1)c1cccc(C(F)(F)F)c1.O=P(c1cccc(C(F)(F)F)c1)(c1cccc(C(F)(F)F)c1)c1cccc(C(F)(F)F)c1.[Cl][Sn]([Cl])([Cl])[Cl]`, the T/C is, setting by setting: under setting [6], 100 % of control; under setting [7], 96 % of control; under setting [8], 86 % of control.
As for `C=C(CSCC(N)=O)c1ccccc1`, the T/C runs as follows: under setting [6], 97 % of control; under setting [7], 97 % of control; under setting [8], 94 % of control.
For `COc1cc(NC(=O)CC(C)=O)cc2c(C)cc(=O)[nH]c12`, the T/C runs as follows: under setting [9], 104 % of control; under setting [2], 102 % of control; under setting [10], 96 % of control; under setting [3], 107 % of control; (dose: 400.0 mg/kg/injection, schedule: Q01DX001 (ip), vehicle: Klucel (hydroxypropylcellulose) (HPC)) 102 % of control; under setting [4], 102 % of control.
`C/C=C/CC1(CC)C(=O)NC(=S)NC1=O`: the T/C is, setting by setting: under setting [11], 107 % of control; under setting [12], 113 % of control.
For the compound `Cc1cc2no[n+]([O-])c2cc1C`, the T/C was 108 % of control under setting [1]; 100 % of control under setting [9]; 106 % of control (dose: 100.0 mg/kg/injection, schedule: Q01DX009 (ip), vehicle: Klucel (hydroxypropylcellulose) (HPC)); 96 % of control under setting [10]; 114 % of control (dose: 200.0 mg/kg/injection, schedule: Q01DX009 (ip), vehicle: Klucel (hydroxypropylcellulose) (HPC)).
For `Cc1ccc(S(=O)(=O)ON2C(=O)c3cccc4cc([N+](=O)[O-])cc(c34)C2=O)cc1`, the T/C runs as follows: under setting [13], 95 % of control; under setting [14], 101 % of control; under setting [15], 104 % of control.
As to `O=c1c2ccccc2[nH]c(=S)n1-c1cccc(Cl)c1`, the T/C by setting is: under setting [11], 93 % of control; under setting [12], 89 % of control; under setting [16], 91 % of control.
In the same order, the values of `O=[N+]([O-])c1cc([N+](=O)[O-])c(/C=C/c2cccc(OCc3ccccc3)c2)cc1/C=C/c1cccc(OCc2ccccc2)c1` are 91 % of control, 89 % of control and 91 % of control.
For `Ic1nc(I)c(I)[nH]1`, the T/C is 102 % of control (dose: 100.0 mg/kg/injection, schedule: Q01DX009 (ip), vehicle: saline with Tween-80); 105 % of control (dose: 200.0 mg/kg/injection, schedule: Q01DX009 (ip), vehicle: saline with Tween-80); 102 % of control (dose: 400.0 mg/kg/injection, schedule: Q01DX009 (ip), vehicle: saline with Tween-80).
On to `CC(C)(C)NCc1cc(C(C)(C)C)cc(-c2ccccc2)c1O`, for which the T/C reads like this: under setting [13], 100 % of control; under setting [17], 97 % of control; under setting [14], 101 % of control; under setting [18], 90 % of control; under setting [15], 99 % of control.
With `CCOC(=O)CCCC1(C)C(C#N)C(=O)NC(=O)C1C#N` (stereo not drawn), the T/C is 96 % of control (dose: 100.0 mg/kg/injection, schedule: Q01DX009 (ip), vehicle: saline); 112 % of control under setting [17]; 98 % of control (dose: 200.0 mg/kg/injection, schedule: Q01DX009 (ip), vehicle: saline); 102 % of control under setting [18]; 90 % of control (dose: 400.0 mg/kg/injection, schedule: Q01DX009 (ip), vehicle: saline); 94 % of control (dose: 400.0 mg/kg/injection, schedule: Q04DX003 (ip), vehicle: saline).
Regarding `CCOc1cc(C=Nc2cc(Cl)c(O)c(Cl)c2)ccc1N(CCCl)CCCl`, the T/C is 114 % of control (dose: 5.0 mg/kg/injection, schedule: Q01DX009 (ip), vehicle: carboxymethylcellulose (CMC)); 105 % of control (dose: 5.0 mg/kg/injection, schedule: Q01DX009 (ip), vehicle: saline); 106 % of control (dose: 10.0 mg/kg/injection, schedule: Q01DX009 (ip), vehicle: saline); 120 % of control (dose: 13.0 mg/kg/injection, schedule: Q01DX009 (ip), vehicle: carboxymethylcellulose (CMC)); 109 % of control (dose: 25.0 mg/kg/injection, schedule: Q01DX001 (ip), vehicle: saline); 118 % of control (dose: 44.0 mg/kg/injection, schedule: Q01DX001 (ip), vehicle: carboxymethylcellulose (CMC)). For the same compound, the T/C is 113 % of control (dose: 44.0 mg/kg/injection, schedule: Q01DX009 (ip), vehicle: other); 116 % of control (dose: 50.0 mg/kg/injection, schedule: Q01DX001 (ip), vehicle: saline); 150 % of control under setting [5].
Consider `Oc1c(Br)cc(F)cc1Br`, for which the T/C (dose: 100.0 mg/kg/injection, schedule: Q04DX002 (ip), vehicle: saline with Tween-80) was 98 % of control and the T/C (dose: 200.0 mg/kg/injection, schedule: Q04DX002 (ip), vehicle: saline with Tween-80) was 94 % of control.
Take `CC(CC(=O)C(F)(F)F)=NCC(C)N=C(C)CC(=O)C(F)(F)F` (stereo not drawn): the T/C is, setting by setting: (dose: 100.0 mg/kg/injection, schedule: Q01DX001 (ip), vehicle: other) 101 % of control; (dose: 100.0 mg/kg/injection, schedule: Q04DX003 (ip), vehicle: other) 115 % of control; (dose: 200.0 mg/kg/injection, schedule: Q01DX001 (ip), vehicle: other) 86 % of control; (dose: 200.0 mg/kg/injection, schedule: Q04DX003 (ip), vehicle: other) 105 % of control; (dose: 400.0 mg/kg/injection, schedule: Q01DX001 (ip), vehicle: other) 97 % of control; (dose: 400.0 mg/kg/injection, schedule: Q04DX003 (ip), vehicle: other) 111 % of control.
